Test results from US20160101146A1, “TREATMENT FOR INFECTION WITH HEPATITIS B VIRUS ALONE OR IN COMBINATION WITH HEPATITIS DELTA VIRUS AND ASSOCIATED LIVER DISEASES” (NOVARTIS AG, priority 2011, published 2016).

How the values were obtained:
[1] = test system: Hepatitis B virus replication; test: Intracellular (cytoplasmic, nucleocapsid-associated) HBV DNA quantitation by real-time PCR in HBV-transfected hepatoma cells; type: cell-based, Hepatitis B virus (human hepatoma cell lines); conditions: for reduction of cellular HBV DNA: FIG. 6
Description: (§1) HepG2215 cell line, derived from HepG2 cells, was stably transfected with HBV DNA and supported full HBV replication with production of infectious virions and HBsAg. HepG2215 cells were cultured in 12-well plates, as described previously (7, 8), for 7 days prior to adding the cyclophilin inhibitors.
(§2) The cells were treated with 0.25, 1.0 or 5.0 micrograms/mL of NIM811 or DEB025; cells and supernatants were harvested separately at baseline, 6, 24, 48 and 72 hours after the addition of NIM811 or DEB025, respectively.
(§3) HuH-7 cells were transfected with a plasmid containing a pBlueScript KS(+) vector with a 1.5 HBV DNA genomes of subtype adw2 was used. Subconfluent HuH-7 cells were transfected with 5 μg of plasmid DNA per 60-mm-diameter dish using 10 μl of Superfect reagent (Qiagen, Crawley, UK). The supernatants were replaced 18 h posttransfection with medium supplemented with 10% FCS, and the cells were cultured for 3 days, as described (7).
(§4) Stably transfected (HepG2215) and transiently transfected (HUH-7) cells, producing full HBV virions and HBsAg particles, were treated with a range of Alisporivir concentrations (0.25, 1.0 5.0 or 20 micrograms/ml) alone, telbivudine alone, or combinations of Alisporivir and telbivudine. To determine the involvement of individual cyclophilins, HepG2215 cells were transfected with siRNA-specific for cyclophilin (Cyp) A, C or D and additionally treated with Alisporivir. Cytoplasmic extracts and supernatants were harvested at baseline; 24, 48 and 72 hours post-treatment. The kinetics of antiviral activity was assessed by quantitation of intracellular and secreted HBV-DNA (real-time qPCR) and HBsAg levels (ELISA).
(§5) HBV replication was assessed by quantitation of both viral nucleocapsid-associated HBV DNA (cytoplasmic) and the HBV DNA levels in cell culture supernatants, as described previously (8,9). Nucleocapsid HBV DNA was extracted and quantitated by TaqMan real-time PCR (ABI Prism 7700). Intracellular HBV DNA was normalized with b-actin as a house-keeping gene. Secreted HBV DNA was extracted with QIAmp DNA minikit (Qiagen, Sussex, UK) and also quantitated by TaqMan. The sensitivity of HBV DNA quantitation was verified in each run with serial dilutions of HBV DNA plasmid, as well as the EuroHep HBV DNA standard, as described (9,10).

[2] = test system: Hepatitis B virus replication; test: Alisporivir treatment of HepG2215 cells silenced for CypA, C or D by siRNA; HBV-DNA and HBsAg levels; type: cell-based, Hepatitis B virus (human hepatoma cell line); conditions: greater effects in CypC or CypD silenced cells than CypA silenced cells (p<0.001)
Description: To assess the role of cyclophilin A in HBV replication, HepG2215 cells were transfected with siRNA for cyclophilin A and incubated with medium only or with the addition of NIM811 or DEB025. Similarly, the role of Cyclophilin B, C and D in HBV and HDV replication will be evaluated by siRNA specific for CypB, C and D.
as §4, with “Cytoplasmic extracts and supernatants were harvested at baseline; 24, 48 and 72 hours post-treatment.” left out
HepG2215 cells were seeded with the siRNAs (Dharmacon Inc., Lafayette, Colo.) at 50% density and incubated for 48 h. […] Total DNA was extracted from the samples and HBV DNA was quantitated by real time PCR, as above. […] The RNA was reverse transcribed with Quantitect Reverse transcription kit (Qiagen) and cDNA quantitated with SYBR Green Quantitect kit using Quantitect primers (Qiagen, Sussex, UK).

[3] = test system: Hepatitis B virus replication; test: Secreted HBV DNA quantitation in cell culture supernatants by real-time PCR; type: cell-based, Hepatitis B virus (human hepatoma cell lines)
Description: as §1, §2, §3, §4, §5

[4] = test system: Hepatitis B virus; conditions: at one year, cited from earlier work; for rate of undetectable HBV DNA: HBeAg-negative patients with CHB; for virological treatment response rate (undetectable serum HBV DNA): HBeAg-positive patients

| Structure (SMILES) | reduction of intracellular HBV-DNA ([1]; HepG2215 and HUH-7 cells, dose-dependent (0.25-20 micrograms/ml), compared with untreated controls, p=0.004) | reduction of intracellular HBV DNA compared with NIM811 ([1]; HepG2215 cells, 5 micrograms/mL, 72 h) | reduction of intracellular HBV DNA levels ([1]; HepG2215 cells, 5 micrograms/mL, 72 hours, FIG. 1) | reduction of cellular HBV DNA ([1]; HepG2215 cells) | reduction of cytoplasmic HBV DNA ([1]; Huh7 and HepG2215 cells, FIG. 4) | HBV-DNA levels in Cyp-silenced cells [2] | HBsAg levels in Cyp-silenced cells [2] | reduction of secreted HBV-DNA ([3]; HepG2215 and HUH-7 cells, dose-dependent (0.25-20 micrograms/ml), compared with untreated controls, p<0.001) | effect in reducing HBV DNA levels in cell culture supernatants compared with NIM811 ([3]; HepG2215 cells, 5.0 micrograms/mL, FIG. 2) | reduction of secreted HBV DNA ([3]; HepG2215 cells, FIG. 5) | reduction of secreted HBV DNA ([3]; transiently transfected Huh7 or stably transfected HepG2215 cells, FIG. 3) | rate of undetectable HBV DNA [4] | virological treatment response rate (undetectable serum HBV DNA) [4] |
| --- | --- | --- | --- | --- | --- | --- | --- | --- | --- | --- | --- | --- | --- |
| C/C=C/C[C@@H](C)[C@@H](O)[C@H]1C(=O)N[C@@H](CC)C(=O)N(C)[C@H](C)C(=O)N(CC)[C@@H](C(C)C)C(=O)N[C@@H](C(C)C)C(=O)N(C)[C@@H](CC(C)C)C(=O)N[C@@H](C)C(=O)N[C@H](C)C(=O)N(C)[C@@H](CC(C)C)C(=O)N(C)[C@@H](CC(C)C)C(=O)N(C)[C@@H](C(C)C)C(=O)N1C [Alisporivir] | 70% | greater than the reduction observed with NIM811 | 10 fold | reductions | dose dependent reductions | further reduced | further reduced | 63% | greater effect | reductions | dose-dependent reduction | – | – |
| C[C@H](Cn1cnc2c(N)ncnc21)OCP(=O)(O)O [tenofovir] | – | – | – | – | – | – | – | – | – | – | – | 91% | 74% |
| C=C1[C@H](CO)[C@@H](O)C[C@@H]1n1cnc2c(=O)[nH]c(N)nc21 [entecavir] | – | – | – | – | – | – | – | – | – | – | – | 90% | 67% |
| Cc1cn([C@@H]2C[C@@H](O)[C@H](CO)O2)c(=O)[nH]c1=O [telbivudine, reference compound] | – | – | – | reductions | – | – | – | – | – | reductions | – | 88% | 60% |
